Data published in publication PMC8053192, “Engineering of a borneol dehydrogenase from P. putida for the enzymatic resolution of camphor” (Applied Microbiology and Biotechnology, 2021).

System: T1, glucose dehydrogenase (GDH) from Pseudomonas sp.
T1 construct: commercial enzyme, Sigma-Aldrich (UK)
Assay: steady-state kinetics, Michaelis-Menten fit
Format: biochemical
Settings: pH 5.0, 30 °C; NAD+ as co-substrate; read-out: apparent Km

Km: 3.6 ± 0.35 mM
SMILES: OC[C@H]1OC(O)[C@H](O)[C@@H](O)[C@@H]1O (stereo partly shown) [glucose]
